Laboratory results as given in patent US20260125357A1, “LACTATE ENHANCING COMPOUNDS AND USES THEREOF” (GLIAPHARM SA, priority 2022, published 2026).

Tests used:
[1] = system: mice injected with streptozotocin; experiment: Inhibitory Avoidance in streptozotocin ICV injection model of Alzheimer's disease; assay type: in vivo, mouse; details: 1 day after training, vs Veh
Experimental: Craniotomies are performed on isoflurane-anesthetized mice for injections of Veh or streptozotocin in cerebral ventricles (coordinates: −0.5 mm (to bregma), lateral+/−1.0 mm (to midline), ventral −2.2 mm (to dura)) (Kelliny S. et al., Molecular Neurobiology, 2021). A solution composed of Veh (0.9% NaCl) or streptozotocin (5 mg/kg) prepared in 1 μl artificial cerebrospinal fluid solution (aCSF, 20 mM citrate buffer, pH 4.2) is injected in both cerebral ventricles using Hamilton micro syringe at a constant speed of 100-200 nl/min. After injection, skin of the skull is sutured, and mice is monitored closely and receives analgesic treatment for at least 4 days. After mice had fully recovered from surgery, memory tests including Morris Water Maze (MWM), Inhibitory Avoidance (IA) and Novel Object Recognition (NOR), as described below, are performed. […]
Inhibitory avoidance (IA) test is a well-established memory paradigm in rodents that measures contextual memory associated with a mild electrical footshock in a specific context (the dark compartment of the IA chamber). […] Memory retention was measured at 24 h after training by placing the mouse back into the lit compartment and recording its latency (in seconds) to enter the dark compartment. […]

primary astrocytes = experiment: MTT mitochondrial activity assay in primary astrocytes; assay type: cell-based, mouse; details: different concentrations, after 1.5 h or 24 h
Experimental: Primary cultures of cerebrocortical astrocytes were obtained from 1 to 2-day-old OF1 mouse pups (Charles River Laboratories). Briefly, cortices were isolated and minced in small pieces under a dissecting microscope. The cells were incubated for 30 min at 37° C. in a solution containing 20 U/ml papain, 1 mM L-cysteine and 10 kU/ml DNase I. After dissociation, papain activity was stopped by the addition of fetal calf serum (FCS). Single-cell suspension was then obtained by mechanical dissociation, which consisted in cells trituration in a DMEM D7777 medium supplemented with 44 mm NaHCO3, 10 ml/L antibiotic/antimycotic solution and 10% FCS. The cells were seeded at an average density of ˜10′000 cells/cm^2 on poly-D-lysine coated 96- or 12-well culture plates, depending on their use, and grown in DMEM D7777 medium supplemented with 44 mm NaHCO3, 10 ml/L antibiotic/antimycotic solution and 10% FCS at 37° C. in a humidified atmosphere containing 5% CO2/95% air. Culture medium was renewed twice a week. Cells were stimulated and harvested between DIV14 and DIV17, when confluence and cell growth were optimal.
To monitor mitochondrial activity in astrocytes, which is linked to the metabolic process of glycolysis and production of lactate, astrocytes in 96-well plates were stimulated for 24 h (37° C. 5% CO2/95% air) with the compounds of the invention ranging from 10 nM to 10 μM.
After stimulation, 5 mg/ml thiazol blue tetrazolium bromide (MTT) in D5030 medium complemented with 5 mM D-glucose and 44 mM sodium bicarbonate (pH 7.2) was added to each well, and cells were incubated for 4 h at 37° C. (5% CO2). The medium was then removed and the amount of reduced MTT, i.e formazan, solubilized in DMSO (50 μl/well) was determined using a spectrophotometer (absorbance of 570 nm).
The mitochondrial activity was monitored in MTT colorimetric assay in primary astrocytes treated with Compounds (1), (2), (3), (4) (5), (9) and (10) at different concentrations after 1.5 h (FIG. 2 A, B, D, E, F, C, H, respectively) or 24 h (FIG. 2 H, I, K, L, M, J, N, respectively).

[2] = system: human iPSC-derived astrocytes; experiment: Release of lactate from human iPSC-derived astrocytes; assay type: cell-based; details: treated for 1.5 hours
Experimental: Secretion of L-lactate was measured in the extracellular medium of 96-well plated astrocytes after 90 min stimulation (at 37° C., in 5% CO2/95% air conditions) with Vehicle (DMSO), the compounds of the invention (100 nM to 100 μM) or positive control. […] Stimulation medium was composed of D5030 medium complemented with 5 mM D-glucose and 44 mM sodium bicarbonate, pH 7.2. To quantify lactate concentrations in the extracellular medium, 200 μl of a 0.2M Glycine-semicarbazide buffer (pH 10) containing 3 mM NAD and 14 U/ml LDH was added to each well of a 96-well plate containing 30 μl aliquots of extracellular medium. Samples were incubated at 37° C. for 1 h. Fluorescence intensity (340 nm excitation/450 nm emission), which represents the amount of NADH produced, was measured, and lactate concentration values were determined relative to a standard curve of L-lactate concentrations.
Human iPSC-derived astrocytes were purchased from NCardia (NCyte Astrocytes) and were plated at a density of ˜10′000 cells/cm^2 in 96-well or 12-well plates, according to the manufacturer's instructions and using the recommended media. Experiments were performed at 7 days in vitro. Cells were treated for 1.5 hours with compound (2). Uptake of 2-DG and release of lactate were quantified as described previously.

In the case of `COc1cc2ccnc(Nc3ccc(S(C)(=O)=O)cc3)c2cc1OC` [Compound 2, 6,7-dimethoxy-N-(4-methylsulfonylphenyl)isoquinolin-1-amine], the “memory in the Inhibitory Avoidance” value ([1]; 10 mg/kg) is reported as “significantly higher”, the “memory in the Inhibitory Avoidance” value ([1]; 30 mg/kg) is reported as “significantly higher” and the “mitochondrial activity (MTT colorimetric assay)” value (primary astrocytes) is reported as “none of the selected compounds had direct effect on mitochondrial activity”. For the same compound, the release of lactate [2] was “increased”.
